Test results from PubChem BioAssay (NCI).
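1) Cells in 96-well plates. 2) Compound, 48 h, 5 concentrations. 3) Linear interpolation between surrounding doses. 4) Unreached endpoint = highest concentration. The concentration for full growth arrest is given as TGI.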

Legend:
Assay in all cases: NCI tumour cell line growth inhibition, 48 h
A498 renal = system: A498 renal
A549 NSCLC = system: A549 NSCLC
ACHN renal = system: ACHN renal
CAKI-1 renal = system: CAKI-1 renal
CCRF-CEM leukemia = system: CCRF-CEM leukemia
COLO 205 colon = system: COLO 205 colon
DLD-1 colon = system: DLD-1 colon
DMS 114 small cell lung = system: DMS 114 small cell lung
DMS 273 small cell lung = system: DMS 273 small cell lung
EKVX NSCLC = system: EKVX NSCLC
HCC-2998 colon = system: HCC-2998 colon
HCT-116 colon = system: HCT-116 colon
HCT-15 colon = system: HCT-15 colon
HL-60(TB) leukemia = system: HL-60(TB) leukemia
HOP-18 NSCLC = system: HOP-18 NSCLC
HOP-62 NSCLC = system: HOP-62 NSCLC
HOP-92 NSCLC = system: HOP-92 NSCLC
HT29 colon = system: HT29 colon
IGROV1 ovarian = system: IGROV1 ovarian
K-562 leukemia = system: K-562 leukemia
KM12 colon = system: KM12 colon
KM20L2 colon = system: KM20L2 colon
LOX IMVI melanoma = system: LOX IMVI melanoma
LXFL 529 NSCLC = system: LXFL 529 NSCLC
M14 melanoma = system: M14 melanoma
M19-MEL melanoma = system: M19-MEL melanoma
MOLT-4 leukemia = system: MOLT-4 leukemia
NCI-H226 lung = system: NCI-H226 lung
NCI-H23 lung = system: NCI-H23 lung
NCI-H460 lung = system: NCI-H460 lung
NCI-H522 lung = system: NCI-H522 lung
OVCAR-3 ovarian = system: OVCAR-3 ovarian
OVCAR-4 ovarian = system: OVCAR-4 ovarian
OVCAR-5 ovarian = system: OVCAR-5 ovarian
OVCAR-8 ovarian = system: OVCAR-8 ovarian
RPMI-8226 leukemia = system: RPMI-8226 leukemia
RXF-631 renal = system: RXF-631 renal
SF-268 CNS = system: SF-268 CNS
SF-295 CNS = system: SF-295 CNS
SF-539 CNS = system: SF-539 CNS
SK-MEL-28 melanoma = system: SK-MEL-28 melanoma
SK-MEL-5 melanoma = system: SK-MEL-5 melanoma
SK-OV-3 ovarian = system: SK-OV-3 ovarian
SN12C renal = system: SN12C renal
SNB-19 CNS = system: SNB-19 CNS
SNB-75 CNS = system: SNB-75 CNS
SW-620 colon = system: SW-620 colon
TK-10 renal = system: TK-10 renal
U251 CNS = system: U251 CNS
UACC-62 melanoma = system: UACC-62 melanoma
XF 498 CNS = system: XF 498 CNS
786-0 renal = system: 786-0 renal
MALME-3M melanoma = system: MALME-3M melanoma
RXF 393 renal = system: RXF 393 renal
SK-MEL-2 melanoma = system: SK-MEL-2 melanoma
SNB-78 CNS = system: SNB-78 CNS
UACC-257 melanoma = system: UACC-257 melanoma
UO-31 renal = system: UO-31 renal

Measured: TGI

COC(=O)c1ccc(/C=C2\N=C(C)OC2=O)cc1
not listed: 786-0 renal | MALME-3M melanoma | RXF 393 renal | SK-MEL-2 melanoma | SNB-78 CNS | UACC-257 melanoma | UO-31 renal
> 100 µM: all other assays above

COc1cc2c(cc1OCc1ccccc1)CNCC2
not listed: RPMI-8226 leukemia
> 100 µM: all other assays above
